Experiment: Solubility of CBD in mineral oil
Format: physicochemical
Description: Cannabidiol content. As discussed above, the matrices and TTDs of the present disclosure are advantageously formulated with a “saturated-plus-excess” concentration of CBD. The solubility of CBD in mineral oil (and by extension a PIB/mineral oil blend since PIB and mineral oil have the same solubility) is 4% (w/w). The amount of CBD in the matrix should be at least twofold, e.g., at least threefold, at least fourfold, or at least fivefold more CBD than the maximum concentration of CBD that dissolves in the plasticizer (e.g., mineral oil). The amount of CBD in the matrix can be any amount from about 10% (w/w) to about 30% (w/w) of the matrix, for example about 12.0% (w/w), about 12.5% (w/w), about 13.0% (w/w), about 13.5% (w/w), about 14.0% (w/w), about 14.5% (w/w), about 15.0% (w/w), about 15.5% (w/w), about 16.0% (w/w), about 16.5% (w/w), about 17.0% (w/w), about 17.5% (w/w), about 18.0% (w/w), about 18.5% (w/w), about 19.0% (w/w), about 19.5% (w/w), about 20.0% (w/w), or about 20.5% (w/w) of the matrix. The amount of cannabinoids other than CBD should be less than about 10% (w/w), for example less than about 1% (w/w).

With `C=C(C)[C@@H]1CCC(C)=C[C@H]1c1c(O)cc(CCCCC)cc1O` [CBD, cannabidiol] the “solubility of CBD in mineral oil (and by extension a PIB/mineral oil blend)” value was 4 % (w/w).
